Data on 7 compounds can be found in patent publication US8518930B2, “Therapeutic combination comprising a CDKS inhibitor and an antineoplastic agent” (Nerviano Medical Sciences S.r.l., priority 2008, dated 2013).

Data set [1] relates to HCT-116 human colon carcinoma. Kind of data set: In vivo antitumor efficacy in combination with 5-FU, subcutaneous xenograft. Particulars: for T − C: time to reach 1 g. The method, then: Balb, Nu/Nu male mice, from Harlan (Italy), were maintained in cages with paper filter cover, food and bedding sterilized and water acidified. Fragments of HCT-116 human colon carcinoma were implanted subcutaneously in athymic mice.
(§1) The treatment started when tumors were palpable. Both compounds were prepared immediately before treatment.
5-FU was administered by intravenous route in a volume of 10 ml/kg at the dose of 50 mg/kg on days 1, 8. […] Toxicity was evaluated on the basis of body weigh reduction.

The subject of data set [2] is A2780 human ovarian carcinoma cells. Put plainly: In vitro cytotoxic activity of the combination with SN-38 (cell proliferation, cellular ATP monitoring). The settings on record: for IC50: single agent, A2780, SN-38 1 hour, compound of formula (I) 24 hours, counted 72 hours after first treatment. Format: cell-based. The procedure: SN38 is the active metabolite of irinotecan, from which is obtained by hydrolysis. Exponentially growing A2780 human ovarian carcinoma cells were seeded and incubated at 37° C. in a humidified 5% CO2 atmosphere. After 24 hours, scalar doses of SN-38 were added to the medium for 1 hour, cells were washed and compound of formula (I) added for 24 hours. Cells were then washed and counted 72 hours after the first treatment. Cell proliferation was determined by a cellular adenosine triphosphate monitoring system. Cell proliferation was compared to control cells. The concentration inhibiting cell proliferation by 50% (IC50) was calculated.
(§2) The combination indices (C.I.) were calculated using a computer program for multiple drug effect analysis based on the equation of Chou-Talalay (Adv Enzyme Regul 1984; 22:27-55) for mutually nonexclusive drugs, where a C.I. of <1 indicates a more than additive effect.

Data set [3] concerns U87-MG human glioblastoma. Particulars: for T − C: time to reach 1 g; for Toxicity: male, Balb Nu/Nu (athymic), mouse, in vivo, po, 7 days. The method, then: Balb, Nu/Nu male mice, from Harlan (Italy), were maintained in cages with paper filter cover, food and bedding sterilized and water acidified. Fragments of U87-MG human glioblastoma were implanted subcutaneously in athymic mice. […] The treatment with temozolomide started when tumors were palpable. Compounds were prepared immediately before treatment.
(§3) Temozolomide was administered orally in a volume of 10 ml/kg at the dose of 25 mg/kg for 5 consecutive days. […] Tumor growth and body weight were measured every 3 days. Tumor growth was assessed by caliper. The two diameters were recorded and the tumor weight was calculated according the following formula: length (mm)×width^2/2. The effect of the antitumor treatment was evaluated as the delay in the onset of an exponential growth of the tumor (see for references, Anticancer drugs 7:437-60,1996). This delay (T-C value) was defined as the difference of time (in days) required for the treatment group (T) and the control group (C) tumors to reach a predetermined size (1 g). Toxicity was evaluated on the basis of body weigh reduction.

The test system of data set [4] is A2780 human ovarian carcinoma cells. Put plainly: In vitro cytotoxic activity of the combination with gemcitabine (cell proliferation, cellular ATP monitoring). Format: cell-based. The settings on record: for IC50: Homo sapiens, single agent, A2780, compound of formula (I) 24 hours, gemcitabine 1 hour, counted 72 hours after first treatment. The method, then: Exponentially growing A2780 human ovarian carcinoma cells were seeded and incubated at 37° C. in a humidified 5% CO2 atmosphere. After 24 hours, scalar doses of the compound of formula (I) were added to the medium for 24 hours, cells were washed and gemcitabine added for 1 hour. Cells were then washed and counted 72 hours after the first treatment. Cell proliferation was determined by a cellular adenosine triphosphate monitoring system. Cell proliferation was compared to control cells. The concentration inhibiting cell proliferation by 50% (IC50) was calculated.
as §2

For data set [5] the test system is unchanged. Kind of data set: In vitro cytotoxic activity of the combination with oxaliplatin (cell proliferation, cellular ATP monitoring). Format: cell-based. The settings on record: for IC50: single agent, A2780, oxaliplatin 1 hour, compound of formula (I) 24 hours, counted 72 hours after first treatment. The procedure:
Exponentially growing A2780 human ovarian carcinoma cells were seeded and incubated at 37° C. in a humidified 5% CO2 atmosphere. After 24 hours, scalar doses of oxaliplatin were added to the medium for 1 hour, cells were washed and compound of formula (I) added for 24 hours. Cells were then washed and counted 72 hours after the first treatment. Cell proliferation was determined by a cellular adenosine triphosphate monitoring system. Cell proliferation was compared to control cells. The concentration inhibiting cell proliferation by 50% (IC50) was calculated.
as §2

The test system of data set [6] is N-592 human small cell lung cancer tumors. The settings on record: for T − C: time to reach 1 g; for Toxicity: male, Balb Nu/Nu (athymic), mouse, in vivo, po, 17 days. The method, then:
Balb, Nu/Nu male mice, from Harlan (Italy), were maintained in cages with paper filter cover, food and bedding sterilized and water acidified. Fragments of N-592 human small cell lung cancer tumors were implanted subcutaneously in athymic mice.
as §1
as §3, with “Topotecan” for “Temozolomide”, “by intravenous route” for “orally”, “6” for “25”, “on days 1, 5, 9, 13, 17.” for “for 5 consecutive days.”, “references” for “references,”, “7:437-60, 1996).” for “7:437-60,1996).”

Where [7] appears, read: temozolomide 25 mg/kg orally, days 1-5.
Where [8] appears, read: compound of formula (I) 20 mg/kg orally twice a day, days 1-7.
Setting [9] is: compound of formula (I) 40 mg/kg orally twice a day, days 1-7.

Read-outs that look alike come from different tables or passages of the source.

The IC50 is the concentration needed to halve the response being measured.

In the case of `O=c1[nH]cc(F)c(=O)[nH]1` [5-FU, 5-fluorouracil, reference compound], the “T − C” value in data set [1] (5-FU 50 mg/kg intravenous, days 1, 8) is recorded as 2.17 days.
Consider `CCc1c2c(nc3ccc(O)cc13)-c1cc3c(c(=O)n1C2)COC(=O)[C@]3(O)CC` [SN-38, reference compound], for which, in data set [2], the IC50 worked out at 39 nM.
On to `Cn1nnc2c(C(N)=O)ncn2c1=O` [temozolomide, reference compound], for which, in data set [3] (setting [7]), the Tumor-free mice is on record as 1/8 and the “T − C” value worked out at 30.88 days.
On to `Nc1ccn([C@@H]2O[C@H](CO)[C@@H](O)C2(F)F)c(=O)n1` [Gemcitabine, gemcitabine, reference compound], for which, in data set [4], the IC50 was found to be 364 nM.
As for `O=C1[O][Pt]2([NH][C@@H]3CCCC[C@H]3[NH]2)[O]C1=O` [Oxaliplatin, oxaliplatin, reference compound], the IC50 in data set [5] is 2470 nM.
As to `CNC(=O)c1nn(C)c2c1C(C)(C)Cc1cnc(Nc3ccc(N4CCN(C)CC4)cc3)nc1-2` [compound of formula (I), 8-[4-(4-methyl-piperazin-1-yl)-phenylamino]-1,4,4-trimethyl-4,5-dihydro-1H-pyrazolo[4,3-h]quinazoline-3-carboxylic acid methylamide], the “T − C” value is 1.61 days in data set [6] (Compound of formula (I) 20 mg/kg orally twice a day, days 1-17); 2.98 days in data set [6] (Compound of formula (I) 30 mg/kg orally twice a day, days 1-17); 4.93 days in data set [1] (Compound of formula (I) 20 mg/kg orally twice a day, days 2-7 and 9-14); 1.74 days in data set [3] (setting [8]); 7.14 days in data set [3] (setting [9]). The combination effect result in data set [6] (compound of formula (I) combined with topotecan, N-592 xenograft) is “clear synergistic effect”; in data set [5] (compound of formula (I) combined with oxaliplatin, human tumor cells), “more than additive (i.e. synergic) effect”; in data set [2] (compound of formula (I) combined with SN-38, human tumor cells), “more than additive (i.e. synergic) effect”; in data set [4] (compound of formula (I) combined with gemcitabine, human tumor cells), “more than additive (i.e. synergic) effect”; in data set [1] (compound of formula (I) combined with 5-FU, HCT-116 xenograft), “clear synergistic effect”; in data set [3] (compound of formula (I) combined with temozolomide, U87-MG xenograft), “clear synergic effect”. The Toxicity is given as 0/7 in data set [6] (20 mg/kg); 0/7 in data set [6] (30 mg/kg); 0/7 in data set [1] (male, Balb Nu/Nu (athymic), mouse, in vivo, po, 20 mg/kg); 0/8 in data set [3] (20 mg/kg); 0/8 in data set [3] (40 mg/kg). In addition, the IC50 in data set [5] (Homo sapiens) turned out to be 876 nM; in data set [2] (Homo sapiens) it was 690 nM; in data set [4], 419 nM. In addition, the Tumor-free mice in data set [3] (setting [8]) and in data set [3] (setting [9]) was 0/8 throughout.
Turning to `CC[C@@]1(O)C(=O)OCc2c1cc1n(c2=O)Cc2cc3c(CN(C)C)c(O)ccc3nc2-1` [topotecan, reference compound], in data set [6] (topotecan 6 mg/kg intravenous, days 1, 5, 9, 13, 17), the “T − C” value stood at 5.64 days.
